Source: patent US20240208994A1, “PLASMA KALLIKREIN INHIBITORS” (Merck Sharp & Dohme LLC, priority 2021, published 2024)

Tests used:
Human plasma kallikrein = target: T1, Human plasma kallikrein (Homo sapiens, UniProt P03952); assay: Plasma Kallikrein Assay; assay type: biochemical; settings: purified Human plasma kallikrein 0.5 nM, substrate Acetyl-K-P-R-AFC, HEPES pH 7.4, fluorescence 405 Ex/510 Em; read-out: PKal IC50
T1 construct: yields a heavy chain (371 amino acids) and a light chain (248 amino acids); purchased Enzyme Research Laboratories
T1 sequence (P03952 391-638 limits assumed): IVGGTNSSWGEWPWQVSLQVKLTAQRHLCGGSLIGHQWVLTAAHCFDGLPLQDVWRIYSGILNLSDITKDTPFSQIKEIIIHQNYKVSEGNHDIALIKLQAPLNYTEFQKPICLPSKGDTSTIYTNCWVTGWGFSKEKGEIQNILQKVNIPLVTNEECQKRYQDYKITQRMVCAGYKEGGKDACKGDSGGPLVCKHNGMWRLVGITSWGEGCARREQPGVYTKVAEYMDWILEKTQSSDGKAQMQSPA
T1 sequence (P03952 20-390 partner limits assumed): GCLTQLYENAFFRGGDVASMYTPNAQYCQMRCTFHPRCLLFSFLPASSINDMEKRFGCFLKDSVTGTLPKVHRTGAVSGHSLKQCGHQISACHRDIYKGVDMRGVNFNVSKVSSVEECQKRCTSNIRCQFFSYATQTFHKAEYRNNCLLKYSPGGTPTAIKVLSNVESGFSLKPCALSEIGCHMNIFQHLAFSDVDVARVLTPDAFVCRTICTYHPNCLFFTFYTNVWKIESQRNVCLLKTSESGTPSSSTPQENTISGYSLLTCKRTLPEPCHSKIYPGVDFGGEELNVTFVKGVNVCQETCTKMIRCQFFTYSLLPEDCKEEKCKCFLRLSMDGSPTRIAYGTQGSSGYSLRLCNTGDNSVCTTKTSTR
Experimental: (§1) The effectiveness of a compound of the present invention as an inhibitor of plasma kallikrein can be determined using a relevant purified serine protease, and an appropriate synthetic substrate. The rate of hydrolysis of the chromogenic or fluorogenic substrate by the relevant serine protease was measured both in the absence and presence of compounds of the present invention. Assays were conducted at rt or at 37° C. […] A decrease in the rate of fluorescence change in the presence of inhibitor is indicative of enzyme inhibition. Such methods are known to one skilled in the art. The results of this assay are expressed as the half-maximal inhibitory concentrations (IC50), or the inhibitory constant, Ki.
Plasma kallikrein determinations were made in 50 mM HEPES buffer at pH 7.4 containing 150 mM NaCl, 5 mM CaCl2), and 0.1% PEG 8000 (polyethylene glycol: Fisher Scientific). Determinations were made using purified Human plasma kallikrein at a final concentration of 0.5 nM (Enzyme Research Laboratories) and the synthetic substrate, Acetyl-K-P-R-AFC (Sigma #C6608) at a concentration of […].
Activity assays were performed by diluting a stock solution of substrate at least tenfold to a final concentration ≤0.2 Km into a solution containing enzyme or enzyme equilibrated with inhibitor. Times required to achieve equilibration between enzyme and inhibitor were determined in control experiments. The reactions were performed under linear progress curve conditions and fluorescence increase measured at 405 Ex/510 Em nm. Values were converted to percent inhibition of the control reaction (after subtracting 100% Inhibition value). IC50 was determined by inflection point from a four parameter logistic curve fit. Ki was calculated using the Cheng Prusoff equation, Ki=IC50/(1+([S]/Km)).

human factor XIa = human factor XIa (Homo sapiens, UniProt P03951); assay: Factor XIa Assay; assay type: biochemical; settings: human factor XIa 0.04 nM, 30 min pre-incubation at 25° C., substrate GPR-AFC, pH 7.4, 60 min incubation; read-out: FXIa IC50
human factor XIa, sequence (P03951 388-625 limits assumed): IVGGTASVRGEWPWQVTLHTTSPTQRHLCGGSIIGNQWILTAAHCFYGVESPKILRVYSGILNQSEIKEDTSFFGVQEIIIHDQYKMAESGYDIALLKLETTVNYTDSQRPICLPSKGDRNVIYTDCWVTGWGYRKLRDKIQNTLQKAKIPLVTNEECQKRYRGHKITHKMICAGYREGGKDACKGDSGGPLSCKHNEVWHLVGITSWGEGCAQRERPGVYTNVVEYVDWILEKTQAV
human factor XIa, sequence (P03951 19-387 partner limits assumed): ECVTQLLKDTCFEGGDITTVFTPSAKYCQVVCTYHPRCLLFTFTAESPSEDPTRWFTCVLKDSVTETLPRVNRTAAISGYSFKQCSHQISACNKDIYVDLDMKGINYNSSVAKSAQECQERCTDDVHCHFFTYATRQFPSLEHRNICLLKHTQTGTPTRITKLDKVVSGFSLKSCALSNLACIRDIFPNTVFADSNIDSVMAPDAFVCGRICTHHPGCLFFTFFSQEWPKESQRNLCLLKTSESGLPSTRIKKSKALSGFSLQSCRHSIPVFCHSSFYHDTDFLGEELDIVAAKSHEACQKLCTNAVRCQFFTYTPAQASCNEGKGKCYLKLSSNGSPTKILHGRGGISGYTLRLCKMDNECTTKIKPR
Experimental: as §1, with “Coagulation factor XIa” for “plasma kallikrein”
Compounds were pre-incubated for 30 min at 25° C. with human (0.04 nM) factor XIa in 50 mM HEPES buffer with 150 mM sodium chloride, 5 mM calcium chloride, 0.1% PEG 8000, pH 7.4. factor XIa enzymatic activity was determined by addition of the substrate glycine-proline-arginine-7-amido-4-trifluoromethylcoumarin (GPR-AFC) and measurement of the fluorescence at 400/505 nm after a 60 min incubation at 25° C. The % inhibition for each data point was calculated from the data and analyzed using the log (inhibitor) vs. response four parameters equation to determine the half-maximal inhibitory concentrations (IC50). The IC50 were converted to equilibrium inhibitory constants (Ki) using the Cheng-Prusoff equation.

Row | Structure (SMILES) | IC50 (Human plasma kallikrein) | IC50 (human factor XIa)
1 | Nc1cc(-c2cc3ccccc3o2)nn1CC(=O)N1CC[C@@]2(C1)OC(=O)Nc1ccc(Cl)c(F)c12 [Example 48, (R)-1′-(2-(5-Amino-3-(benzofuran-2-y1)-1H-pyrazol-1-yl)acetyl)-6-chloro-5-fluorospiro[benzo[d][1,3]oxazine-4,3′-pyrrolidin]-2(1H)-one] | 7.8 nM | 1400 nM
2 | Nc1cc(-c2cccnn2)nn1CC(=O)N1CC[C@@]2(C1)OC(=O)Nc1ccc(Cl)c(F)c12 [Example 25, (R)-1′-(2-(5-Amino-3-(pyridazin-3-yl)-1H-pyrazol-1-yl)acetyl)-6-chloro-5-fluorospiro[benzo[d][1,3]oxazine-4,3′-pyrrolidin]-2(1H)-one] | 12.7 nM | 367 nM
3 | Nc1c2c(nn1CC(=O)N1CC[C@@]3(C1)OC(=O)Nc1ccc(Cl)c(F)c13)-c1ccccc1C2 [Example 14, (R)-1′-(2-(3-Aminoindeno[1,2-c]pyrazol-2(4H)-y1)acetyl)-6-chloro-5-fluorospiro[benzo[d] [1,3]oxazine-4,3′-pyrrolidin]-2(1H)-one] | 3.3 nM | 29 nM
4 | Nc1cc(-c2ncccc2F)nn1CC(=O)N1CCC[C@@]2(C1)OC(=O)Nc1ccc(Cl)c(F)c12 [Example 36, (R)-1′-(2-(5-Amino-3-(3-fluoropyridin-2-y1)-1H-pyrazol-1-yl)acetyl)-6-chloro-5-fluorospiro [benzo[d][1,3]oxazine-4,3′-piperidin]-2(1H)-one] | 8.4 nM | 826 nM
5 | Nc1cc(C2CCCCC2)nn1CC(=O)N1CC[C@@]2(C1)OC(=O)Nc1ccc(Cl)c(F)c12 [Example 52, (R)-1′-(2-(5-Amino-3-cyclohexy1-1H-pyrazol-1-yl)acetyl)-6-chloro-5-fluorospiro[benzo[d][1,3]oxazine-4,3′-pyrrolidin]-2(1H)-one] | 20.7 nM | 426 nM
6 | Nc1cc(-c2ccccc2)nn1CC(=O)N1CCC[C@@]2(C1)OC(=O)Nc1ccc(Cl)c(F)c12 [Example 23, (R)-1′-(2-(5-Amino-3-phenyl-1H-pyrazol-1-yl)acetyl)-6-chloro-5-fluorospiro[benzo[d][1,3]oxazine-4,3′-piperidin]-2(1H)-one] | 11.8 nM | 1790 nM
7 | CC1(c2cc(N)n(CC(=O)N3CC[C@@]4(C3)OC(=O)Nc3ccc(Cl)c(F)c34)n2)CC1 [Example 3, (R)-1′-(2-(5-Amino-3-(1-methylcyclopropyl)-1H-pyrazol-1-yl)acetyl)-6-chloro-5-fluorospiro[benzo[d][1,3]oxazine-4,3′-pyrrolidin]-2(1H)-one] | 37.8 nM | 347 nM
8 | Nc1cc(C2CC2)nn1CC(=O)N1CCC[C@@]2(C1)OC(=O)Nc1ccc(Cl)c(F)c12 [Example 28, (R)-1′-(2-(5-Amino-3-cyclopropyl-1H-pyrazol-1-yl)acetyl)-6-chloro-5-fluorospiro[benzo[d][1,3]oxazine-4,3′-piperidin]-2(1H)-one] | 16.7 nM | 55 nM
9 | Nc1cc(C2CCCC2)nn1CC(=O)N1CC[C@@]2(C1)OC(=O)Nc1ccc(Cl)c(F)c12 [Example 4, (R)-1′-(2-(5-Amino-3-cyclopenty1-1H-pyrazol-1-yl)acetyl)-6-chloro-5-fluorospiro[benzo[d][1,3]oxazine-4,3′-pyrrolidin]-2(1H)-one] | 16.3 nM | 315 nM

Results, then the compound that gave them:

Row | IC50 (Human plasma kallikrein) | IC50 (human factor XIa) | Structure (SMILES)
10 | 13.9 nM | 613 nM | N#Cc1ccc(-c2cc(N)n(CC(=O)N3CC[C@@]4(C3)OC(=O)Nc3ccc(Cl)c(F)c34)n2)cc1 [Example 63, (R)-4-(5-Amino-1-(2-(6-chloro-5-fluoro-2-oxo-1,2-dihydrospiro[benzo[d][1,3]oxazine-4,3′-pyrrolidin]-l′-xl)-2-oxoethyl)-1H-pyrazol-3-yl)benzonitrile]
11 | 40.3 nM | 2760 nM | Cc1ccc(-c2cc(N)n(CC(=O)N3CC[C@@]4(C3)OC(=O)Nc3ccc(Cl)c(F)c34)n2)n1C [Example 45, (R)-1′-(2-(5-Amino-3-(1,5-dimethyl-1H-pyrrol-2-y1)-1H-pyrazol-1-yl)acetyl)-6-chloro-5-fluorospiro[benzo[d][1,3]oxazine-4,3′-pyrrolidin]-2(1H)-one]
12 | 2.5 nM | 287 nM | Nc1cc(-c2ccccc2OC(F)(F)F)nn1CC(=O)N1CC[C@@]2(C1)OC(=O)Nc1ccc(Cl)c(F)c12 [Example 55, (R)-1′-(2-(5-Amino-3-(2-(trifluoromethoxy)phenyl)-1H-pyrazol-1-yl)acetyl)-6-chloro-5-fluorospiro[benzo[d][1,3]oxazine-4,3′-pyrrolidin]-2(1H)-one]
13 | 15.4 nM | 114 nM | Nc1cc(-c2ccccc2)nn1CC(=O)N1CC[C@@]2(C1)OC(=O)Nc1ccc(Cl)c(F)c12 [Example 24, (R)-1′-(2-(5-Amino-3-phenyl-1H-pyrazol-1-yl)acetyl)-6-chloro-5-fluorospiro[benzo[d][1,3]oxazine-4,3'-pyrrolidin]-2(1H)-one]
14 | 21 nM | 2550 nM | Nc1cc(-c2ccc(F)cc2)nn1CC(=O)N1CCC[C@@]2(C1)OC(=O)Nc1ccc(Cl)c(F)c12 [Example 17, (R)-1′-(2-(5-Amino-3-(4-fluorophenyl)-1H-pyrazol-1-yl)acetyl)-6-chloro-5-fluorospiro[benzo[d][1,3]oxazine-4,3′-piperidin]-2(1H)-one]
15 | 5.7 nM | 648 nM | Nc1cc(-c2ncc(F)cc2F)nn1CC(=O)N1CCC[C@@]2(C1)OC(=O)Nc1ccc(Cl)c(F)c12 [Example 32, (R)-1′-(2-(5-Amino-3-(3,5-difluoropyridin-2-y1)-1H-pyrazol-1-yl)acetyl)-6-chloro-5-fluorospiro[benzo [d][1,3]oxazine-4,3′-piperidin]-2(1H)-one]
16 | 11.8 nM | 679 nM | COc1cccc(-c2cc(N)n(CC(=O)N3CC[C@@]4(C3)OC(=O)Nc3ccc(Cl)c(F)c34)n2)c1 [Example 8, (R)-1′-(2-(5-Amino-3-(3-methoxyphenyl)-1H-pyrazol-1-yl)acetyl)-6-chloro-5-fluorospiro[benzo[d][1,3]oxazine-4,3′-pyrrolidin]-2(1H)-one]
17 | 5 nM | 263 nM | Nc1cc(-c2ccc(F)cc2F)nn1CC(=O)N1CC[C@@]2(C1)OC(=O)Nc1ccc(Cl)c(F)c12 [Example 46, (R)-1′-(2-(5-Amino-3-(2,4-difluorophenyl)-1H-pyrazol-1-yl)acetyl)-6-chloro-5-fluorospiro[benzo[d][1,3]oxazine-4,3′-pyrrolidin]-2(1H)-one]
18 | 5.7 nM | 430 nM | Nc1cc(-c2ccccc2I)nn1CC(=O)N1CC[C@@]2(C1)OC(=O)Nc1ccc(Cl)c(F)c12 [Example 58, (R)-1′-(2-(5-Amino-3-(2-iodophenyl)-1H-pyrazol-1-yl)acetyl)-6-chloro-5-fluorospiro[benzo[d][1,3]oxazine-4,3′-pyrrolidin]-2(1H)-one]
19 | 3.2 nM | 187 nM | Nc1cc(-c2ccccc2Cl)nn1CC(=O)N1CC[C@@]2(C1)OC(=O)Nc1ccc(Cl)c(F)c12 [Example 43, (R)-1′-(2-(5-Amino-3-(2-chlorophenyl)-1H-pyrazol-1-yl)acetyl)-6-chloro-5-fluorospiro[benzo[d][1,3]oxazine-4,3′-pyrrolidin]-2(1H)-one]
20 | 12 nM | 433 nM | N#Cc1cccc(-c2cc(N)n(CC(=O)N3CC[C@@]4(C3)OC(=O)Nc3ccc(Cl)c(F)c34)n2)c1 [Example 67, (R)-3-(5-Amino-1-(2-(6-chloro-5-fluoro-2-oxo-1,2-dihydrospiro[benzo[d] [1,3]oxazine-4,3'-pyrrolidin]-1'-y1)-2-oxoethyl)-1H-pyrazol-3-y1)benzonitrile]
